Experimental data taken from US20110263588A1, “TRICYCLIC COMPOUNDS AS GLUTAMATE RECEPTOR MODULATORS” (GLAXO GROUP LIMITED, priority 2008, published 2011).

Target: T1, human mGlu5 recombinant receptor (Homo sapiens, UniProt P41594)
T1 construct: expressed in transfected cells; host or cells: inducible CHO cell line stably expressing Aequorin (Euroscreen FAST); doxycycline-responsive promoter
Experiment: mGluR5 calcium mobilization in inducible mGluR5 CHO cells (aequorin luminescence, antagonist mode)
Format: cell-based
Conditions: Table 2; antagonist activity against EC80 glutamate, inducible CHO cell line expressing human mGlu5 and Aequorin; read-out: IC50 (uM) Ca^++ flux
From the text: mGluR5 Calcium Mobilization in Inducible mGluR5 CHO Cells
To functionally measure mGluR5 calcium mobilization in response to agonists or antagonists, an inducible CHO cell line expressing the human mGlu5 recombinant receptor was used. This cell line also stably expressed Aequorin (Euroscreen FAST), a photoprotein that spontaneously couples with coelenterazine h when added exogenously in the cell media. The Aequorin-coelenterzine h complex undergoes a conformational change upon binding of calcium ions which results in the emission of blue light (wavelength 469 nm) that was measured using a Hamamatsu Functional Drug Screening System 6000.
mGluR5 expression was induced by a doxycycline responsive promoter by growing cells to mid-log phase for 18 hours in media without antibiotics and supplemented with doxycycline (600 ng/mL). Cells were detached from the plate by gentle flushing using PBS-EDTA (5 mM EDTA) and centrifuged for collection and resuspended in “assay buffer” (HBSS, 2.1 mM CaCl2, 2 ug/mL glutamate-pyruvate transaminase, 4 mM MEM sodium pyruvate, and 0.1% protease free BSA). Cells were incubated with coelenterazine h (Molecular Probes) at room temperature for 4 hours before testing.
To measure mGluR5 antagonist activity, cell suspensions containing test compound were mixed with EC80 glutamate and emission of light was recorded. Reference and test compounds were tested at several concentrations in duplicate to obtain dose response curves using the Prism GraphPad software (GraphPad Software Inc.). IC50 values were calculated from the dose response curves using the equation:
Y=Bottom+(Top−Bottom)/(1+10̂((LogEC50−X)*HillSlope)).

T1 sequence (P41594 21-1212): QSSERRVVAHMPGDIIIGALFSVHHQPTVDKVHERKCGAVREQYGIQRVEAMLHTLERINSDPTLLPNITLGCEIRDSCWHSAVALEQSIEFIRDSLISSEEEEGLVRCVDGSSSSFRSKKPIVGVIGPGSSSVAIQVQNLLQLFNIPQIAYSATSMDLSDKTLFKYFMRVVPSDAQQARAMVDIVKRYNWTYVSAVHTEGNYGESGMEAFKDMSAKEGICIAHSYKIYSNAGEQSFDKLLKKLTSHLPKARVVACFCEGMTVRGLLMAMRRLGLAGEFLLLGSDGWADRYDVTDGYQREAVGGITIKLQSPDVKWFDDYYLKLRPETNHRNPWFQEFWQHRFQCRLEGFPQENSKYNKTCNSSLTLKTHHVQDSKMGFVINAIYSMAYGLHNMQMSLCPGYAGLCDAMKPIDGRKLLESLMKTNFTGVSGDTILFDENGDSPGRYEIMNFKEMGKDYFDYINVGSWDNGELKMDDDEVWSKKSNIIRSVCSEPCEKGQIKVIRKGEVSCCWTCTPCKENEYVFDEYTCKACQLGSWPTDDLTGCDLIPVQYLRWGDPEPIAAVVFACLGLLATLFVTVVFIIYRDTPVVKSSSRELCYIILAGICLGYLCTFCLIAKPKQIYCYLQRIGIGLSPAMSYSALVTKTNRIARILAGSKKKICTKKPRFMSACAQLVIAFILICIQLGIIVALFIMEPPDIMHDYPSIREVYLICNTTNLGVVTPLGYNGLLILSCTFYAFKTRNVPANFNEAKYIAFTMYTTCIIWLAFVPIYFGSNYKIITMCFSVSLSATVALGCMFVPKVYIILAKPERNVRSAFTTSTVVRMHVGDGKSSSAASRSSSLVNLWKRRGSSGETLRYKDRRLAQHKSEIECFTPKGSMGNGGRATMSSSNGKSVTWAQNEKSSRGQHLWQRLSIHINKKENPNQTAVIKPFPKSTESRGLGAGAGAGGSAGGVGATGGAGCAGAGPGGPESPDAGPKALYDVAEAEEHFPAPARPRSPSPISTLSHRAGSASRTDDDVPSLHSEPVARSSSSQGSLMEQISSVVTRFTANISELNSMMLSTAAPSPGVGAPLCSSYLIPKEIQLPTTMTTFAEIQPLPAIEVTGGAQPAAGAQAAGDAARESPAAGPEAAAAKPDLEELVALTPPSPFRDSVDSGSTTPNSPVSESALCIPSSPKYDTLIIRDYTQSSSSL

Row | IC50 | SMILES
1 | < 1 µM | Cn1nc(C(=O)Nc2cccc(Cl)c2)c2c1-c1cc(F)ccc1OC2 [Example 1, N-(3-Chlorophenyl)-8-fluoro-1-methyl-1,4-dihydrochromeno[4,3-c]pyrazole-3-carboxamide]
2 | 1 to 10 µM | Cn1nc(C(=O)Nc2cc(Cl)ccn2)c2c1-c1ccccc1OC2 [Example 3, N-(4-Chloropyridin-2-yl)-1-methyl-1,4-dihydrochromeno[4,3-c]pyrazole-3-carboxamide]
